We go through three compounds from PMC9611727, “Optimization of a Novel Mandelamide-Derived Pyrrolopyrimidine Series of PERK Inhibitors” (Pharmaceutics, 2022).

Bounds are passed on as bounds.

The target in assay [1] is T1, FLT3 (Homo sapiens, UniProt P36888).
T1 sequence (P36888 27-993): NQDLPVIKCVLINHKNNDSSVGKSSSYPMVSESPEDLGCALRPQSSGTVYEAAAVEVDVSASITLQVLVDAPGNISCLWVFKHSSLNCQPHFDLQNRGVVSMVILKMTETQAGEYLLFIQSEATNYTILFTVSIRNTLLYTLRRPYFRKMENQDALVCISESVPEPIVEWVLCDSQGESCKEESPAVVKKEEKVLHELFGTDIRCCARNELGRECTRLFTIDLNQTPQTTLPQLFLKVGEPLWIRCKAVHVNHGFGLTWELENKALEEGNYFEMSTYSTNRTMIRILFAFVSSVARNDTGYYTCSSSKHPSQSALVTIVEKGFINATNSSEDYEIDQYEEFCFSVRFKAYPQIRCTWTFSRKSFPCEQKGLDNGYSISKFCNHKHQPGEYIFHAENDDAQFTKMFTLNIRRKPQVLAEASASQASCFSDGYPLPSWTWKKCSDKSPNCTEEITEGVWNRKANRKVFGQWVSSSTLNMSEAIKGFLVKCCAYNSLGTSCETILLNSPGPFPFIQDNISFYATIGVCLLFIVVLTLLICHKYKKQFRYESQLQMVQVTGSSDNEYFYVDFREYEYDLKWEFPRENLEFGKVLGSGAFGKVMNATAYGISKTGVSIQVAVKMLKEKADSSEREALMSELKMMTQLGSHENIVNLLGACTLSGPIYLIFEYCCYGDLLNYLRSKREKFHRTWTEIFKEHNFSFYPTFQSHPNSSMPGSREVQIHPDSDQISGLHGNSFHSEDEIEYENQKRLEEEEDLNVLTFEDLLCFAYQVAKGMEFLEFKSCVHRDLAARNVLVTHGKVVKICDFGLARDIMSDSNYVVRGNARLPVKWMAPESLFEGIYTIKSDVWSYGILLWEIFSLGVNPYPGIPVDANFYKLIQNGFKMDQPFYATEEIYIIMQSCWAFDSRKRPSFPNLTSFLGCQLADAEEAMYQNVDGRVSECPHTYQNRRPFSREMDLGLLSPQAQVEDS
The assay is described as follows: scanMAX kinase panel. It counts as binding. Details: purchased DiscoverX scanMAX. The settings on record: read-out: % Control; for remaining binding at 1 µM: 1000 nM. The text has this: Supplemental Table S2. scanMAXSM Kinome Assay Results. Complete tabulated data of all 468 kinases from the panel, including
403 wild-type and 65 mutant isoforms. […] Cmpd 11 and Cmpd 24

The target in assay [2] is T2, GCN2 (Homo sapiens, UniProt Q9P2K8).
T2 construct: purchased Carna 05-153
Nature of the assay: ISR kinase cell-free biochemical assay (Carna), GCN2. The settings on record: ATP 150 µM. Here is the method:
(§1) In brief, 26 was dissolved in DMSO and serially diluted 3-fold to generate concentrations ranging from 10 µM to 0.2 nM in a 384-well plate using a TECAN EVO200 automated liquid handler. 10 nL stock solution was transferred into each well of a 384well assay plate by an Echo550 and an equivalent volume of DMSO was added to the control wells. To each assay well, recombinant protein was suspended in 20 µL reaction buffer (listed below) and incubated at 25 °C for 1.5 h while shaking at 1250 rpm. Following incubation, 10 µL of a FRET dilution buffer including 20 mM EDTA and 4 nM Tb-anti-peIF2a [pSer51] (Invitrogen, Cat# PV4815) was added to each well and incubated at 25 °C for 2 h while shaking at 600 rpm in the dark. Analysis was performed using an Envision Microplate Reader (PerkinElmer).

The test system of assay [3] is MV4-11 (FLT3-ITD). Nature of the assay: Cell viability assay, MV4-11. The settings on record: Homo sapiens. It counts as cell-based. On the procedure: (§2) MV-4-11 and EoL-1 were plated at a density 20,000 cells/well in a 96 well plate. Cells were incubated with DMSO, 1 µM docetaxel, or an 8-pt, 2-fold dose response of 26 in quadruplicate. On day 3 and day 7, cells from DMSO-treated wells were counted and cells from all wells were split back so that the DMSO-treated wells matched the original seeding density. Cells were centrifuged in 96 well filter plates (Sigma) and resuspended in fresh compound-containing media.
(§3) On day 10, cells were incubated with alamarBlue™ HS Cell Viability Reagent (Invitogen) (10 µL of alamarBlue in a well of 90 µL media) for 2 hours at 37C/5% CO2. Fluorescence was measured on the EnVision Plate reader (Perkin Elmer) at an ex/em of 560/590 nm. Raw fluorescence values were normalized to positive and negative controls (DMSO, 1 µM docetaxel) to get a % viability. Replicates were averaged and dose responses were plotted on a 4 Parameter Logistic […]
(§4) MV-4-11 cells were plated in 6 well plates overnight in reduced serum media (IMDM + 0.5% FBS). The following day, compound or vehicle were added to the plate for a final DMSO concentration of 0.1% and incubated at 37 C for 2 hours.
(§5) Cells were washed with 1X PBS (Gibco 10010-023), and lysed in RIPA buffer with added inhibitors. Protein concentration was determined using a BCA assay (Thermo Scientific 23225). […]

In assay [4] the test system is MOLM-13 (FLT3-ITD). The assay is described as follows: Cell viability assay, MOLM-13. Type of assay: cell-based. The settings on record: Homo sapiens.
The subject of assay [5] is MOLM-16 (FLT3wt). Nature of the assay: Cell viability assay, MOLM-16. The settings on record: Homo sapiens, MOLM16. Type of assay: cell-based.
For assay [6], the target named is T3, PERK (Homo sapiens, UniProt Q9NZJ5).
T3 construct: purchased Carna 05-155
Nature of the assay: ISR kinase cell-free biochemical assay (Carna), PERK. The settings on record: ATP 8 µM. On the procedure: as §1

Assay [7] concerns p-ERK. The assay is described as follows: FLT3-ITD downstream signaling, p-ERK western blot in MV4-11 cells. Type of assay: cell-based. The settings on record: Homo sapiens, normalized to Crenolanib, read-out: pERK IC50. On the procedure: as §2, §3, §4, §5
Background: In western blotting, separated proteins are transferred to a membrane and probed.

Assay [8] has as its target T1, FLT3. The assay is described as follows: Radiometric in vitro kinase activity assay, FLT3. Type of assay: biochemical. The settings on record: wild-type FLT3, radiometric, up to 10 μM.

T3 sequence (Q9NZJ5 563-1116 limits assumed): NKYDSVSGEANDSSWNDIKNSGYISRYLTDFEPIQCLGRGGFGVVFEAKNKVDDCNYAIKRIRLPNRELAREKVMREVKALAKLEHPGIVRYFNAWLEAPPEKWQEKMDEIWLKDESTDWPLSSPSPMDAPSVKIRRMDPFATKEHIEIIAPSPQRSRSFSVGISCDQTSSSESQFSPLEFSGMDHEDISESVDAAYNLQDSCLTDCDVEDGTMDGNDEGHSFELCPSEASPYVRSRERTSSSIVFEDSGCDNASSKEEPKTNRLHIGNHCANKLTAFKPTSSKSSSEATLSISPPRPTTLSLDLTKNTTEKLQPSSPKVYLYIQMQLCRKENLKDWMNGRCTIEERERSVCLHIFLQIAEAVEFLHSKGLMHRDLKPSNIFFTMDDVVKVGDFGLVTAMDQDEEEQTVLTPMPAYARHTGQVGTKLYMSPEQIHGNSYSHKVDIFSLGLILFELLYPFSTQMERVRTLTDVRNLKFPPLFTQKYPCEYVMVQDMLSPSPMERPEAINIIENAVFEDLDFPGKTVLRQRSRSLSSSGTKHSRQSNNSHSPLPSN
T2 sequence (Q9P2K8 whole entry): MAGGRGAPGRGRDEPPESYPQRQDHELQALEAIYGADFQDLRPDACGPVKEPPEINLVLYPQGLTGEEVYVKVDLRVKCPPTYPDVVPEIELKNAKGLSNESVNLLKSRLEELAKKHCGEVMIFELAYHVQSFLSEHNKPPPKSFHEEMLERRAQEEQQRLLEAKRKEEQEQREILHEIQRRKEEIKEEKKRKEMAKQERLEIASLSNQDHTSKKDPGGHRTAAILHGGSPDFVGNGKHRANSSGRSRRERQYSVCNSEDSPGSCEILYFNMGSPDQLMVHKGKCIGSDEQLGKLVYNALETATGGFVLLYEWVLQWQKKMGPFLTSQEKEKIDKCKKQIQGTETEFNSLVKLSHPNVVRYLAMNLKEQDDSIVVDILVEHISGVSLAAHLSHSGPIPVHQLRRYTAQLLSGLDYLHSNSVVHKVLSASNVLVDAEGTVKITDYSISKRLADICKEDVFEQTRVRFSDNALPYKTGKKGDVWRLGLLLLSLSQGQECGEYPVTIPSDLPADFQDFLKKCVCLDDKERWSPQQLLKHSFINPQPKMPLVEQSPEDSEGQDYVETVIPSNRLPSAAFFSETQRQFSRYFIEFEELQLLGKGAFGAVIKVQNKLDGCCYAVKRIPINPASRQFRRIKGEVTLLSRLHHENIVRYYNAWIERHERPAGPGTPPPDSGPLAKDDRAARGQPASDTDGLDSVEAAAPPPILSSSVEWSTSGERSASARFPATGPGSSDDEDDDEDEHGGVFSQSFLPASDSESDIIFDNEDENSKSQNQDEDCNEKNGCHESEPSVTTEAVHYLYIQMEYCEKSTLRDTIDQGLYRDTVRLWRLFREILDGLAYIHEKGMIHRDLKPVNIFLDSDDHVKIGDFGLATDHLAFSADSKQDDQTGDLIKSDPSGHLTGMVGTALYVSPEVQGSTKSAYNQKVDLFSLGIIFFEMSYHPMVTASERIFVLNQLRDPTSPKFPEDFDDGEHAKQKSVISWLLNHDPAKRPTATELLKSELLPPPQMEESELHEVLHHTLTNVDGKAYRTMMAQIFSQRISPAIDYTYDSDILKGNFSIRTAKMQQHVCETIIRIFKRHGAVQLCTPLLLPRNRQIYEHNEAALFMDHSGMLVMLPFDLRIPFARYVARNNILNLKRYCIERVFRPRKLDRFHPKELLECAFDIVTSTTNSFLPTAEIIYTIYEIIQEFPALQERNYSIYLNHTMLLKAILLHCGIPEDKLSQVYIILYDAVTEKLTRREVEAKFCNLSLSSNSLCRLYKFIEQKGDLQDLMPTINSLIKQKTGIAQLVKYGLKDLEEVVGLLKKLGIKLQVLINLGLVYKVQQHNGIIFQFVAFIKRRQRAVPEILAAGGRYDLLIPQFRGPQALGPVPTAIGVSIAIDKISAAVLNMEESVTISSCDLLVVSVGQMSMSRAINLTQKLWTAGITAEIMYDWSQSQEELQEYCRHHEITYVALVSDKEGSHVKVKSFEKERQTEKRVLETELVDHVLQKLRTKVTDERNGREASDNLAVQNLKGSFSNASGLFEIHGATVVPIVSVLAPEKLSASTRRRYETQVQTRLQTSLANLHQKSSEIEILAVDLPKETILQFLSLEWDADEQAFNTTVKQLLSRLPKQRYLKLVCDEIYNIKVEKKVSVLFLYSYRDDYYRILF

For `Cc1cc(NC(=O)[C@H](O)c2cccc(F)c2)ccc1-c1cn(C)c2ncnc(N)c12` [Compound 11, (R)-N-(4-(4-amino-7-methyl-7H-pyrrolo[2,3-d]pyrimidin-5-yl)-3-methylphenyl)-2-(3-fluorophenyl)-2-hydroxy acetamide], in assay [1], the remaining binding at 1 µM is 4.3%.
`Cc1nc(N)c2c(-c3ccc(NC(=O)[C@H](O)c4cccc(F)c4)cc3C)cn(C)c2n1` [Compound 24]: in assay [1], the remaining binding at 1 µM amounted to 66%.
With `Cc1nc(N)c2c(-c3ccc(NC(=O)[C@H](O)c4cccc(C(F)(F)F)c4)cc3C)cn(C)c2n1` [Compound 26], the IC50 in assay [2] is over 10000 nM; in assay [3] it was 226 nM; in assay [4], 311 nM; in assay [5] it was over 10000 nM; in assay [6] it was 4.7 nM; in assay [7] it was 551 nM. Further, the IC50 in assay [8] is over 1000 nM. Also, the remaining binding at 0.1 µM in assay [1] (100 nM) was found to be 41%. Further, in assay [1], the remaining binding at 1 µM was 0%.

In general, IC50 refers to the concentration that inhibits the measured activity by half.
